{
  "source": "patent US11077111B2",
  "about": "“Use of fused heteroaromatic pyrrolidones for treatment and prevention of diseases in animals” (Bayer Animal Health GmbH, priority 2017, dated 2021)",
  "key": {"[1]": {"test_system": "house dust mites (HDM)-sensitized Beagle dogs", "assay": "In vivo model of house dust mite induced canine allergic dermatitis", "details": "for reduction rates of edema / reduction rates of erythema: range over time points", "method": "Therein, HDM-sensitization consisted of a series of subcutaneous injections of HDM antigen (10 μg, Greer Laboratories, Lenoir, N.C., USA) and Alhydrogel® (0.2 mL, InvivoGen, San Diego, Calif. 921221, USA) as adjuvant in time intervals of approximately two weeks. The sensitization process was monitored and confirmed by intradermal skin testing. […] The control group was not treated while the group treated with the compound according to formula (IIIa) supra was orally treated with gelatin capsules containing the compound according to formula (IIIa) supra and Ac-Di-Sol; the group receiving Apoquel®, received the commercially available tablets. […] Plasma samples were analyzed to determine exposure to the compound in relationship to the clinical evaluations. […] This is illustrated by Tables 1 and 2, and by FIGS. 1 and 2."}, "IRAK4": {"biological_target": "IRAK4 (Canis lupus familiaris, UniProt A0A8I3S726)", "sequence (A0A8I3S726 1-460)": "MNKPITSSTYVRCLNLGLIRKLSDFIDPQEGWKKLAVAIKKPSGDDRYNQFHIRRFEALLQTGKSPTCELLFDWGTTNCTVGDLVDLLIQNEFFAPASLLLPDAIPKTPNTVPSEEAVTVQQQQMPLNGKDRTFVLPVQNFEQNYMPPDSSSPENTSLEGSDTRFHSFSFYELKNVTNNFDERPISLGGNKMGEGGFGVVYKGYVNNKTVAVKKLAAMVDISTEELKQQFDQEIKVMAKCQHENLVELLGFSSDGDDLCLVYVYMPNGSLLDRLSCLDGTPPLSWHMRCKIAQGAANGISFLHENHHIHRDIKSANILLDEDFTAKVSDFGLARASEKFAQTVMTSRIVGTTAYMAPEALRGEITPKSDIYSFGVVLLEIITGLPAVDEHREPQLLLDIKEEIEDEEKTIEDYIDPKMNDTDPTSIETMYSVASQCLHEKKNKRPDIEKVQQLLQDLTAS", "assay": "Radiometric protein kinase assay, dog IRAK4", "format": "biochemical, Dog (Canis lupus familiaris)", "details": "10 μM ATP", "method": "(§1) A radiometric protein kinase assay was used for measuring the kinase activity of the Dog (Canis lupus familiaris) IRAK4, JAK1, JAK2, SYK kinases. All kinase assays were performed in 96-well FlashPlates in a 50 μl reaction volume. The reaction cocktail was pipetted in four steps in the following order: • 20 μl of assay buffer (standard buffer) • […] of test compound (in 10% DMSO) • 20 μl enzyme/substrate mix • […] (in H2O) The reaction cocktails were incubated at 30° C. for 60 minutes. The reaction was stopped with 50 μl of 2% (v/v) H3PO4, plates were aspirated and washed two times with 200 μl 0.9% (w/v) NaCl. Incorporation of 33Pi was determined with a microplate scintillation counter.\n(§2) IC50 calculation: the residual activity (in %) for each well of a particular plate was calculated by using the following formula: Res. Activity (%)=100×[(cpm of compound−low control)/(high control−low control)]\n(§3) The residual activities for each concentration and the compound IC50 values were calculated using Quattro Workflow V3.1.1 (Quattro Research GmbH, Munich, Germany; www.quattro-research.com). The fitting model for the IC50 determinations was “Sigmoidal response (variable slope)” with parameters “top” fixed at 100% and “bottom” at 0%. The fitting method used was a least-squares fit. […]"}, "SYK": {"biological_target": "SYK (Canis lupus familiaris, UniProt A0A8I3P3G0)", "sequence (A0A8I3P3G0 1-633)": "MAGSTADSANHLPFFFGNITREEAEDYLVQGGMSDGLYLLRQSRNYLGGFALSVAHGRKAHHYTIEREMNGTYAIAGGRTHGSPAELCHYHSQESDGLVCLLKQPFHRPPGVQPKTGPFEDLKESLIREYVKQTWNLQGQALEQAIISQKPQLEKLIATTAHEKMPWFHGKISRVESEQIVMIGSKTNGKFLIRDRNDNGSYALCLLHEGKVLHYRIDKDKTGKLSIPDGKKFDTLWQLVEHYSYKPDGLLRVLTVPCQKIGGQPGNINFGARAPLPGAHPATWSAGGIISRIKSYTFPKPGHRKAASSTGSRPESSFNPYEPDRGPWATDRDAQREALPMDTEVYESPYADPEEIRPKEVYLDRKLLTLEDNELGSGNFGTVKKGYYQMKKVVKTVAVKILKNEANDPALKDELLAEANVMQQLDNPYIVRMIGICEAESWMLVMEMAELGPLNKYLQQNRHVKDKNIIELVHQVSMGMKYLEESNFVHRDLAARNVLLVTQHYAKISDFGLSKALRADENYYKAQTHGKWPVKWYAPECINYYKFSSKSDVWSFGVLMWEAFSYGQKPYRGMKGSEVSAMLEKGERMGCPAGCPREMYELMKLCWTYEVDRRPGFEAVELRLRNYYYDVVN", "assay": "Radiometric protein kinase assay, dog SYK", "format": "biochemical, Dog (Canis lupus familiaris)", "details": "1 μM ATP", "method": "A radiometric protein kinase assay was used for measuring the kinase activity of the Dog (Canis lupus familiaris) IRAK4, JAK1, JAK2, SYK kinases. All kinase assays were performed in 96-well FlashPlates in a 50 μl reaction volume. […] The reaction was stopped with 50 μl of 2% (v/v) H3PO4, plates were aspirated and washed two times with 200 μl 0.9% (w/v) NaCl. Incorporation of 33Pi was determined with a microplate scintillation counter. IC50 calculation: the residual activity (in %) for each well of a particular plate was calculated by using the following formula: Res. Activity (%)=100×[(cpm of compound−low control)/(high control−low control)] […] The fitting method used was a least-squares fit. Materials: The dog (Canis lupus familiaris) protein kinases IRAK4, JAK1, JAK2 and SYK had been recombinantly expressed in Sf9 insect cells and purified by affinity chromatography."}, "JAK2": {"biological_target": "JAK2 (Canis lupus familiaris, UniProt A0A8C0QV87)", "sequence (A0A8C0QV87 1-1132)": "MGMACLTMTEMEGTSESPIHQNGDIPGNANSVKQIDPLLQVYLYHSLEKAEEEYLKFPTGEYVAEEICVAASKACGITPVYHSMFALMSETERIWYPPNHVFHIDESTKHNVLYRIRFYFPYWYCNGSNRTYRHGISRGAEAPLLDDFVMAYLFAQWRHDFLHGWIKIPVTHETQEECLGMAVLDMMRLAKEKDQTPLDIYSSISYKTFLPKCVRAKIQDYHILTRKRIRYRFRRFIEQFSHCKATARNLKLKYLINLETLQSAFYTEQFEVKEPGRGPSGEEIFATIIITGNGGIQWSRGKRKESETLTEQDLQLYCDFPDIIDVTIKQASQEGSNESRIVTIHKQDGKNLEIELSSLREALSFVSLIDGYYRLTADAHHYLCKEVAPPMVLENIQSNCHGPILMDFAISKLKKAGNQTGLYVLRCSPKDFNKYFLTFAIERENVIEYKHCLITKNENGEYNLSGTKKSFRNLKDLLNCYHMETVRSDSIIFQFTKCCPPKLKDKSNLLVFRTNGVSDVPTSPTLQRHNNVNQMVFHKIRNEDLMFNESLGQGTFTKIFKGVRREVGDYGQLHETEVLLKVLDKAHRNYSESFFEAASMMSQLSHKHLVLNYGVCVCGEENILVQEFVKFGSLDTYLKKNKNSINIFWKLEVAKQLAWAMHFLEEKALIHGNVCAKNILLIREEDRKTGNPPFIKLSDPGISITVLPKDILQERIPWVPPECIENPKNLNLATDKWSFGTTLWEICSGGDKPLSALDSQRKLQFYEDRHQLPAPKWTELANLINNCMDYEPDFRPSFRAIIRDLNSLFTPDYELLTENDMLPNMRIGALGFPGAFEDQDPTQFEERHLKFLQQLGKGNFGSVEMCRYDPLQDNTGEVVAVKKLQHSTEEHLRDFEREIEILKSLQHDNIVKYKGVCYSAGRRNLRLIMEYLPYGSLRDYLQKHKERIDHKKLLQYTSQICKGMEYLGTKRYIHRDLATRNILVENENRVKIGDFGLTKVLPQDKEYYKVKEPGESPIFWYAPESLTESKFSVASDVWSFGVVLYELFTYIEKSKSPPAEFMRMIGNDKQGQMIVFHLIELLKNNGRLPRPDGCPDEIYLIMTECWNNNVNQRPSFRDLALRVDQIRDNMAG", "assay": "Radiometric protein kinase assay, dog JAK2", "format": "biochemical, Dog (Canis lupus familiaris)", "details": "0.3 μM ATP", "method": "as §1, §2, §3"}, "JAK1": {"biological_target": "JAK1 (Canis lupus familiaris, UniProt A0A8I3RS40)", "sequence (A0A8I3RS40 1-1159)": "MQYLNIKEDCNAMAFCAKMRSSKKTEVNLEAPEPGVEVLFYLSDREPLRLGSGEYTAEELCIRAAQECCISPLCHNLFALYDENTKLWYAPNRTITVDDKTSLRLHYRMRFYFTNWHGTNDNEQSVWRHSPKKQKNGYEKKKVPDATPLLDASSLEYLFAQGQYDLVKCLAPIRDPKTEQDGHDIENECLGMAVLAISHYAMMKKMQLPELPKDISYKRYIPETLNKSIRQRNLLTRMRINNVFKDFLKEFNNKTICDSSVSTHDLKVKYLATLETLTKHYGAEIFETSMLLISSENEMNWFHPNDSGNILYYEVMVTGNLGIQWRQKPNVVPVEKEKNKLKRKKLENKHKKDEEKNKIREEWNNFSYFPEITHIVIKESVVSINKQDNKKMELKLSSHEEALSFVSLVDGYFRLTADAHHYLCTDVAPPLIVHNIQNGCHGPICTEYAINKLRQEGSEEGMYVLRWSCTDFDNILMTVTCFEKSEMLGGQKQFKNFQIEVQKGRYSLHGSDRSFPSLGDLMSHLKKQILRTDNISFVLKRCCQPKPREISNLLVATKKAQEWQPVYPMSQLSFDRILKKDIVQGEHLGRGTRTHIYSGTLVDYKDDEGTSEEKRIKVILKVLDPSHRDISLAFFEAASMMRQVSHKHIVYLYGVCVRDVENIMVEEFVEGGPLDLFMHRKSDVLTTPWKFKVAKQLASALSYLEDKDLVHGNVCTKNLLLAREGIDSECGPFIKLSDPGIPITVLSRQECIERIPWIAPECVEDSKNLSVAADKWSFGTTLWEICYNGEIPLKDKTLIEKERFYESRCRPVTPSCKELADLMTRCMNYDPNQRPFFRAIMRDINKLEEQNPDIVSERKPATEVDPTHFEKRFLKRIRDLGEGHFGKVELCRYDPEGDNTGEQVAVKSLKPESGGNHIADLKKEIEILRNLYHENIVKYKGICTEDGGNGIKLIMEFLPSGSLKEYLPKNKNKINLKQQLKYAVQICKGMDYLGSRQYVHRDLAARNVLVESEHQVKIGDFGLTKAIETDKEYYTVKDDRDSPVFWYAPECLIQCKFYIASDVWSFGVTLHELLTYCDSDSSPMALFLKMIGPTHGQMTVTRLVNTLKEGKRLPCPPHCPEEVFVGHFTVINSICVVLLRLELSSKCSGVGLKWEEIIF", "assay": "Radiometric protein kinase assay, dog JAK1", "format": "biochemical, Dog (Canis lupus familiaris)", "details": "3 μM ATP", "method": "as §1, §2, §3"}, "[2]": {"details": "0.8 mg/kg BID oral, 0.5 h post-challenge"}, "[3]": {"details": "0.8 mg/kg BID oral, 1 h post-challenge"}, "[4]": {"details": "0.8 mg/kg BID oral, 4 h post-challenge"}, "[5]": {"details": "0.8 mg/kg BID oral, 6 h post-challenge"}, "[6]": {"details": "0.8 mg/kg BID oral, 24 h post-challenge"}, "[7]": {"details": "0.8 mg/kg BID oral, 48 h post-challenge"}, "[8]": {"details": "2 mg/kg BID oral, 0.5 h post-challenge"}, "[9]": {"details": "2 mg/kg BID oral, 1 h post-challenge"}, "[10]": {"details": "2 mg/kg BID oral, 4 h post-challenge"}, "[11]": {"details": "2 mg/kg BID oral, 6 h post-challenge"}, "[12]": {"details": "2 mg/kg BID oral, 24 h post-challenge"}, "[13]": {"details": "2 mg/kg BID oral, 48 h post-challenge"}},
  "data": [
    {"compound": "Cn1cc(-c2nc(N[C@@H]3CCCC[C@@H]3N)c(F)c3c2C(=O)NC3)cn1", "note": "[IIIa, 6-((1R,2S)-2-aminocyclohexylamino)-7-fluoro-4-(1-methyl-1H-pyrazol-4-yl)-1H-pyrrolo[3,4-c]pyridine-3(2H)-one]", "values": [
      {"measurement": "Percentage of reduction of Edema (compared to untreated control, median values)", "setting": "[1]; [2]", "result": 41, "unit": "%"},
      {"measurement": "Percentage of reduction of Erythema (compared to untreated control, median values)", "setting": "[1]; [2]", "result": 33, "unit": "%"},
      {"measurement": "Percentage of reduction of Edema (compared to untreated control, median values)", "setting": "[1]; [3]", "result": 52, "unit": "%"},
      {"measurement": "Percentage of reduction of Erythema (compared to untreated control, median values)", "setting": "[1]; [3]", "result": 63, "unit": "%"},
      {"measurement": "Percentage of reduction of Edema (compared to untreated control, median values)", "setting": "[1]; [4]", "result": 39, "unit": "%"},
      {"measurement": "Percentage of reduction of Erythema (compared to untreated control, median values)", "setting": "[1]; [4]", "result": 30, "unit": "%"},
      {"measurement": "Percentage of reduction of Edema (compared to untreated control, median values)", "setting": "[1]; [5]", "result": 49, "unit": "%"},
      {"measurement": "Percentage of reduction of Erythema (compared to untreated control, median values)", "setting": "[1]; [5]", "result": 28, "unit": "%"},
      {"measurement": "Percentage of reduction of Edema (compared to untreated control, median values)", "setting": "[1]; [6]", "result": 41, "unit": "%"},
      {"measurement": "Percentage of reduction of Erythema (compared to untreated control, median values)", "setting": "[1]; [6]", "result": 43, "unit": "%"},
      {"measurement": "Percentage of reduction of Edema (compared to untreated control, median values)", "setting": "[1]; [7]", "result": 100, "unit": "%"},
      {"measurement": "Percentage of reduction of Erythema (compared to untreated control, median values)", "setting": "[1]; [7]", "result": 100, "unit": "%"},
      {"measurement": "reduction rates of edema", "setting": "[1]; 0.8 mg/kg BID", "result": "39-100%"},
      {"measurement": "reduction rates of erythema", "setting": "[1]; 0.8 mg/kg BID", "result": "28-100%"},
      {"measurement": "comparative reduction of edema in the CAD model (% compared the control group), up to", "setting": "[1]; 2 mg/kg BID", "result": "> 75", "unit": "%"},
      {"measurement": "comparative reduction of erythema in the CAD model (% compared the control group), up to", "setting": "[1]; 2 mg/kg BID", "result": "> 75", "unit": "%"},
      {"measurement": "Percentage of reduction of Edema (compared to untreated control, median values)", "setting": "[1]; [8]", "result": 76, "unit": "%"},
      {"measurement": "Percentage of reduction of Erythema (compared to untreated control, median values)", "setting": "[1]; [8]", "result": 74, "unit": "%"},
      {"measurement": "Percentage of reduction of Edema (compared to untreated control, median values)", "setting": "[1]; [9]", "result": 81, "unit": "%"},
      {"measurement": "Percentage of reduction of Erythema (compared to untreated control, median values)", "setting": "[1]; [9]", "result": 76, "unit": "%"},
      {"measurement": "Percentage of reduction of Edema (compared to untreated control, median values)", "setting": "[1]; [10]", "result": 75, "unit": "%"},
      {"measurement": "Percentage of reduction of Erythema (compared to untreated control, median values)", "setting": "[1]; [10]", "result": 75, "unit": "%"},
      {"measurement": "Percentage of reduction of Edema (compared to untreated control, median values)", "setting": "[1]; [11]", "result": 79, "unit": "%"},
      {"measurement": "Percentage of reduction of Erythema (compared to untreated control, median values)", "setting": "[1]; [11]", "result": 76, "unit": "%"},
      {"measurement": "Percentage of reduction of Edema (compared to untreated control, median values)", "setting": "[1]; [12]", "result": 75, "unit": "%"},
      {"measurement": "Percentage of reduction of Erythema (compared to untreated control, median values)", "setting": "[1]; [12]", "result": 69, "unit": "%"},
      {"measurement": "Percentage of reduction of Edema (compared to untreated control, median values)", "setting": "[1]; [13]", "result": 100, "unit": "%"},
      {"measurement": "Percentage of reduction of Erythema (compared to untreated control, median values)", "setting": "[1]; [13]", "result": 100, "unit": "%"},
      {"measurement": "reduction rates of edema", "setting": "[1]; 2 mg/kg BID", "result": "75-100%"},
      {"measurement": "reduction rates of erythema", "setting": "[1]; 2 mg/kg BID", "result": "69-100%"},
      {"measurement": "effect on clinical signs of CAD (edema and erythema)", "setting": "[1]; House Dust Mite model, oral BID", "result": "significantly reduced"}
    ]},
    {"compound": "Cn1cc(-c2nc(N[C@@H]3CCCC[C@@H]3N)c(Cl)c3c2C(=O)NC3)cn1", "note": "[IVa, 6-((1R,2S)-2-Aminocyclohexylamino)-7-chloro-4-(1-methyl-1H-pyrazol-4-yl)-1H-pyrrolo[3,4-c]pyridin-3(2H)-one]", "values": [
      {"measurement": "IC50", "setting": "IRAK4", "result": 10.2, "unit": "nM"},
      {"measurement": "IC50", "setting": "SYK", "result": 323, "unit": "nM"},
      {"measurement": "IC50", "setting": "JAK2", "result": 624, "unit": "nM"},
      {"measurement": "IC50", "setting": "JAK1", "result": 466, "unit": "nM"}
    ]}
  ]
}
